The target in one test is Mer kinase (Homo sapiens (Human), UniProt Q12866). As to the kind of experiment: Mer kinase assay (AlphaScreen). Particulars: read-out: Mer kinase IC50; activity level class.
Another test has as its target Axl kinase (Homo sapiens (Human), UniProt P30530). The test is described as follows: Axl kinase assay (AlphaScreen). It counts as biochemical. Particulars: activity level class.

Some results are limits rather than exact numbers.

The text below walks through data of patent US11407757B2, “Heterocycle compounds as Tyro3, Axl and MerTK (TAM) family of receptor tyrosine kinase inhibitors” (Development Center for Biotechnology, priority 2017, dated 2022).

Axl kinase, sequence (P30530 26-894): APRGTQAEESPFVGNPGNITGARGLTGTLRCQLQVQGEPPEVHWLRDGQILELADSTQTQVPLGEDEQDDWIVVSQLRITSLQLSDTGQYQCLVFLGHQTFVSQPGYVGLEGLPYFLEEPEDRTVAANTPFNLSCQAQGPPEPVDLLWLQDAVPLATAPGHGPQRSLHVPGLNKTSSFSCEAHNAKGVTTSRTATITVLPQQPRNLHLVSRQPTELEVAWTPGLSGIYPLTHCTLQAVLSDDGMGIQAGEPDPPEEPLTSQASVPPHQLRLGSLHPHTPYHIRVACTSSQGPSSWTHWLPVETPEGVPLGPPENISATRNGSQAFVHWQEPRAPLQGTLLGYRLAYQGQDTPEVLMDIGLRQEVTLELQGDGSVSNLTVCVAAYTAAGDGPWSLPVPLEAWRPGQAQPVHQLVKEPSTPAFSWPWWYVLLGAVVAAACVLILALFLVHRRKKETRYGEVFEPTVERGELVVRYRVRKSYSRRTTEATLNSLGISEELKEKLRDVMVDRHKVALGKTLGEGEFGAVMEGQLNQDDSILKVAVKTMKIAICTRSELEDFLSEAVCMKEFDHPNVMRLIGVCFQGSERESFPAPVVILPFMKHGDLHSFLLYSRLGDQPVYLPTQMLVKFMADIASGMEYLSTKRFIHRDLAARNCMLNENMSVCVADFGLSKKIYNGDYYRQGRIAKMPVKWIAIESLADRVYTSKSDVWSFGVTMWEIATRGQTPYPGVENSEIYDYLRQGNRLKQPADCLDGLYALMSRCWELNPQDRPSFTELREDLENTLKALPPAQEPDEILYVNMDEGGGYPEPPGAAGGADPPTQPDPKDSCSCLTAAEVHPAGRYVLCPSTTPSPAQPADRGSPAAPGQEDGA
Mer kinase, sequence (Q12866 21-999): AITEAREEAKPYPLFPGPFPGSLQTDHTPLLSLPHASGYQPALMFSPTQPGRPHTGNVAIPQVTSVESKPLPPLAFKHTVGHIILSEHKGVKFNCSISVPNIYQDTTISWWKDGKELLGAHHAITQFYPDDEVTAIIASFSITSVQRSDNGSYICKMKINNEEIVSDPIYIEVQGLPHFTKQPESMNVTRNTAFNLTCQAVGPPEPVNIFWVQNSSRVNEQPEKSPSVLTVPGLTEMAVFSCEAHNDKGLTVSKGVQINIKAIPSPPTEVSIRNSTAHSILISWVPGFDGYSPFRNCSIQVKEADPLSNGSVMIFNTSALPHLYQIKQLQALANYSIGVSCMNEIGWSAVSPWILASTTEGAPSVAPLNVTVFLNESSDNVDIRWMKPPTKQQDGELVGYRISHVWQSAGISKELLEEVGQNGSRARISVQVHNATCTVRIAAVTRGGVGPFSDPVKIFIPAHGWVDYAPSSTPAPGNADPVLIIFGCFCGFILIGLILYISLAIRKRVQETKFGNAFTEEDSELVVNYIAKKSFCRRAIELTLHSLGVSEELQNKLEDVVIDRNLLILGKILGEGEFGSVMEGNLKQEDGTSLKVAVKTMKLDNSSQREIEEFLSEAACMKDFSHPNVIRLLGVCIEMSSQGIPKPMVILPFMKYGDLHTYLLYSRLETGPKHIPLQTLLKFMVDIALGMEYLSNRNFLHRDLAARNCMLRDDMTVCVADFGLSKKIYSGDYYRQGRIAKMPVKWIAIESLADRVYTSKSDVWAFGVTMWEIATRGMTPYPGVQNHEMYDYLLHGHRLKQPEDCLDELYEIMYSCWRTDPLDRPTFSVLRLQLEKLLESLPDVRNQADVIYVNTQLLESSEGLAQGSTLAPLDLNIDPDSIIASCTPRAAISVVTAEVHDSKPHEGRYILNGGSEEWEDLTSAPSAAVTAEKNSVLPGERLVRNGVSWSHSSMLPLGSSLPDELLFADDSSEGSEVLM

Turning to `COc1nc(Nc2ccc(CN3CCC(N)CC3)cc2)nc2[nH]cc(-c3ccc(S(=O)(=O)N(C)C)cc3)c12` [Compound 6, 4-(2-((4-((4-aminopiperidin-1-yl)methyl)phenyl)amino)-4-methoxy-7H-pyrrolo[2,3-d]pyrimidin-5-yl)-N,N-dimethylbenzene-sulfonamide], the IC50 at Mer kinase was > 1000 nM.

For `COc1nc(Nc2ccc(CN3CCOCC3)cc2)nc2[nH]cc(-c3ccc(S(=O)(=O)N(C)C)cc3)c12` [Compound 7, 4-(4-methoxy-2-((4-(morpholinomethyl)phenyl)amino)-7H-pyrrolo[2,3-d]pyrimidin-5-yl)-N,N-dimethylbenzene-sulfonamide], on Mer kinase, the IC50 was > 1000 nM.

On to `COc1ccc(-c2c[nH]c3nc(Nc4ccc(CN5CCN(C)CC5)cc4)nc(OC)c23)cc1` [Compound 20, 4-methoxy-5-(4-methoxyphenyl)-N-(4-((4-methylpiperazin-1-yl)methyl)phenyl)-7H-pyrrolo[2,3-d] pyrimidin-2-amine], for which the IC50 at Mer kinase is > 1000 nM.

With `COc1nc(Nc2ccc(CN3CCC(C)CC3)cc2)nc2[nH]cc(-c3ccc(NC(=O)c4cc(C)n(C)n4)cc3)c12` [Compound 26, N-(4-(4-methoxy-2-((4-((4-methylpiperidin-1-yl)methyl)phenyl)amino)-7H-pyrrolo[2,3-d]pyrimidin-5-yl)phenyl)-1,5-dimethyl-7H-pyrazole-3-carboxamide], the 50% inhibitory concentration (IC50) at Mer kinase was > 1000 nM.

`COc1cc(-c2c[nH]c3nc(Nc4ccc(CN5CCC(C)CC5)cc4)nc(OC)c23)ccc1OCc1ccccc1` [Compound 44, 5-(4-(benzyloxy)-3-methoxyphenyl)-4-methoxy-N-(4-((4-methylpiperidin-1-yl)methyl)phenyl)-7H-pyrrolo[2,3-d] pyrimidin-2-amine]: the IC50 on Mer kinase was > 1000 nM.

As for `COc1nc(Nc2ccc(CN3CCN(C)CC3)cc2)nc2[nH]cc(-c3ccc(OCc4ccccc4)cc3F)c12` [Compound 46, 5-(4-(benzyloxy)-2-fluorophenyl)-4-methoxy-N-(4-((4-methylpiperazin-1-yl)methyl)phenyl)-7H-pyrrolo[2,3-d]pyrimidin-2-amine], the IC50 on Mer kinase is > 1000 nM.

In the case of `COCCOc1nc(Nc2ccc(CN3CCN(C)CC3)cc2)nc2[nH]cc(-c3ccc(C(F)(F)F)cc3)c12` [Compound 84, 4-(2-methoxyethoxy)-N-(4-((4-methylpiperazin-1-yl)methyl)phenyl)-5-(4-(trifluoromethyl)phenyl)-7H-pyrrolo[2,3-d]pyrimidin-2-amine], the concentration for half-maximal inhibition (IC50) at Mer kinase is > 1000 nM.

On to `CCN(CC)S(=O)(=O)c1ccc(-c2c[nH]c3nc(Nc4ccc(CN5CCN(C)CC5)cc4)nc(OCCOC)c23)cc1` [Compound 86, N,N-diethyl-4-(4-(2-methoxyethoxy)-2-((4-((4-methylpiperazin-1-yl)methyl)phenyl)amino)-7H-pyrrolo[2,3-d]pyrimidin-5-yl)benzenesulfonamide], for which the IC50 on Mer kinase was > 1000 nM.

In the case of `COCCOc1nc(Nc2ccc(CN3CCN(C)CC3)cc2)nc2[nH]cc(-c3ccc(S(=O)(=O)N4CC(C)CC(C)C4)cc3)c12` (stereo not shown) [Compound 87, 5-(4-((3,5-dimethylpiperidin-1-yl)sulfonyl)phenyl)-4-(2-methoxyethoxy)-N-(4-((4-methylpiperazin-1-yl)methyl)phenyl)-7H-pyrrolo[2,3-d]pyrimidin-2-amine], the IC50 on Mer kinase is > 1000 nM.

In the case of `COCCOc1nc(Nc2ccc(CN3CCN(C)CC3)cc2)nc2[nH]cc(-c3ccc(S(=O)(=O)N(C)C)cc3F)c12` [Compound 91, 3-fluoro-4-(4-(2-methoxyethoxy)-2-((4-((4-methylpiperazin-1-yl)methyl)phenyl)amino)-7H-pyrrolo[2,3-d]pyrimidin-5-yl)-N,N-dimethylbenzene-sulfonamide], on Axl kinase, the IC50 is < 30 nM.

Turning to `COCCOc1nc(Nc2ccc(CN3CCN(C)CC3)cc2)nc2[nH]cc(-c3ccc(OCc4ccccn4)cc3F)c12` [Compound 92, 5-(2-fluoro-4-(pyridin-2-ylmethoxy)phenyl)-4-(2-methoxyethoxy)-N-(4-((4-methylpiperazin-1-yl)methyl)phenyl)-7H-pyrrolo[2,3-d]pyrimidin-2-amine], the IC50 at Axl kinase was < 30 nM.

Turning to `COCCOc1nc(Nc2ccc(CN3CCN(C)CC3)cc2)nc2[nH]cc(-c3ccc4c(cnn4C)c3)c12` [Compound 97, 4-(2-methoxyethoxy)-5-(1-methyl-7H-indazol-5-yl)-N-(4-((4-methylpiperazin-1-yl)methyl)phenyl)-7H-pyrrolo[2,3-d]pyrimidin-2-amine], the IC50 on Axl kinase is < 30 nM.

For `COCCOc1nc(Nc2ccc(CN3CCN(C)CC3)cc2)nc2[nH]cc(-c3ccc(OCc4cccc(C)n4)cc3F)c12` [Compound 103, 5-(2-fluoro-4-((6-methylpyridin-2-yl)methoxy)phenyl)-4-(2-methoxyethoxy)-N-(4-((4-methylpiperazin-1-yl)methyl)phenyl)-7H-pyrrolo[2,3-d]pyrimidin-2-amine], the IC50 against Axl kinase is < 30 nM.

As for `COCCOc1nc(Nc2ccc(CN3CCN(C)CC3)cc2)nc2[nH]cc(-c3ccc(OCc4cccc(F)n4)cc3F)c12` [Compound 104, 5-(2-fluoro-4-((6-fluoropyridin-2-yl)methoxy)phenyl)-4-(2-methoxyethoxy)-N-(4-((4-methylpiperazin-1-yl)methyl)phenyl)-7H-pyrrolo[2,3-d]pyrimidin-2-amine], the IC50 on Axl kinase is < 30 nM.

In the case of `COCCOc1nc(Nc2ccc(CN3CCN(C)CC3)cc2)nc2[nH]cc(-c3ccc(OCc4ccc(C)cn4)cc3F)c12` [Compound 105, 5-(2-fluoro-4-((5-methylpyridin-2-yl)methoxy)phenyl)-4-(2-methoxyethoxy)-N-(4-((4-methylpiperazin-1-yl)methyl)phenyl)-7H-pyrrolo[2,3-d]pyrimidin-2-amine], the half-maximal inhibitory concentration (IC50) against Axl kinase was < 30 nM.

As for `COCCOc1nc(Nc2ccc(CN3CCN(C)CC3)cc2)nc2[nH]cc(-c3ccc(OCc4ncccn4)cc3F)c12` [Compound 107, 5-(2-fluoro-4-(pyrimidin-2-ylmethoxy)phenyl)-4-(2-methoxyethoxy)-N-(4-((4-methylpiperazin-1-yl)methyl)phenyl)-7H-pyrrolo[2,3-d]pyrimidin-2-amine], the 50% inhibitory concentration (IC50) on Axl kinase was < 30 nM.

In the case of `COCCOc1nc(Nc2ccc(CN3CCN(C)CC3)cc2)nc2[nH]cc(-c3ccc(OCc4ccccn4)cc3)c12` [Compound 110, 4-(2-methoxyethoxy)-N-(4-((4-methylpiperazin-1-yl)methyl)phenyl)-5-(4-(pyridin-2-ylmethoxy)phenyl)-7H-pyrrolo[2,3-d]pyrimidin-2-amine], the IC50 at Axl kinase is < 30 nM.

As for `COCCOc1nc(Nc2ccc(CN3CCC(C)CC3)cc2)nc2[nH]cc(-c3ccc(OCc4ncccc4C)cc3F)c12` [Compound 111, 5-(2-fluoro-4-((3-methylpyridin-2-yl)methoxy)phenyl)-4-(2-methoxyethoxy)-N-(4-((4-methylpiperidin-1-yl)methyl)phenyl)-7H-pyrrolo[2,3-d]pyrimidin-2-amine], on Axl kinase, the IC50 was < 30 nM.

`CCN1CCN(Cc2ccc(Nc3nc(OCCOC)c4c(-c5ccc(OCc6ncccc6C)cc5F)c[nH]c4n3)cc2)CC1` [Compound 112, N-(4-((4-ethylpiperazin-1-yl)methyl)phenyl)-5-(2-fluoro-4-((3-methylpyridin-2-yl)methoxy)phenyl)-4-(2-methoxyethoxy)-7H-pyrrolo[2,3-d]pyrimidin-2-amine]: the IC50 against Axl kinase was < 30 nM.
